Assay results: patent US9499550B2 (BRISTOL-MYERS SQUIBB COMPANY, priority 2012, dated 2016)
Like-named read-outs stand apart in the source and are kept apart here.

Tests used:
[1] = system: HCV genotype 1a (H77 strain) replicon in HUH-7 cells; test: HCV replicon luciferase reporter assay, genotype 1a; format: cell-based; settings: Hepatitis C virus, Huh-7, 72 h, 3 days incubation, read-out: LE_1a (EC50, range)
Source text: (§1) Generation of HCV Replicon
(§2) An HCV replicon whole cell system was established as described by Lohmann V, Korner F, Koch J, Herian U, Theilmann L, Bartenschlager R., Science 285(5424):110-3 (1999) and modified to introduce a luciferase reporter, as first described by Krieger et al (Krieger N, Lohmann V, and Bartenschlager R, J. Virol. 75(10):4614-4624 (2001)). CDNA encoding a humanized form of the Renilla luciferase gene and a linker sequence fused directly to the 3′-end of the luciferase gene were introduced into the replicon construct using an Asc1 restriction site located in core, directly upstream of the neomycin marker gene. The adaptive mutation at position 1179 (serine to isoleucine) was also introduced (Blight K J, Kolykhalov, A A, Rice, C M, Science 290(5498):1972-1974). A stable cell line constitutively expressing this HCV replicon construct was generated by first linearizing plasmid DNAs with ScaI. RNA transcripts were synthesized in vitro using the T7 MegaScript transcription kit (Ambion, Austin, Tex.) according to manufacturer's directions. In vitro transcripts of the cDNA were transfected into the human hepatoma cell line, HUH-7. […] Resulting cell lines were characterized for positive and negative strand RNA production and protein production over time.
A stable HCV replicon luciferase reporter cell line representing the genotype 1a H77 strain (Yanagi M, Purcell R H, Emerson S U, et al. Transcripts from a single full-length cDNA clone of hepatitis C virus are infectious when directly transfected into the liver of a chimpanzee. Proc Natl Acad Sci USA 1997; 94(16):8738-8743) was generated as described previously for the genotype 1b(Con1) replicon luciferase cell line. The replicon construct was modified by introducing mutations were introduced into the genes encoding the NS3 helicase domain (proline replaced by leucine at position 1496) and NSSA (serine to isoleucine at position 2204) to improve replication in cell culture.
(§3) HCV Replicon Luciferase Reporter Assay
(§4) HCV replicon luciferase assays were developed to monitor the inhibitory effects of compounds described in the disclosure on HCV genotypes 1a and 1b viral replication. HUH-7 cells, constitutively expressing the HCV replicon, were grown in Dulbecco's Modified Eagle Media (DMEM) (Gibco-BRL) containing 10% Fetal calf serum (FCS) (Sigma) and 1 mg/mL G418 (Gibco-BRL). Compounds were serially diluted 3 folds in DMSO for a twenty-point titration and subsequently transferred to sterile 384-well tissue-culture treated plates (Corning cat #3571). The plates were then seeded with 50 μL of cells at a density of 3.0×10^3 cells/well in DMEM containing 4% FCS (final DMSO concentration at 0.5%). After 3 days incubation at 37° C., cells were analyzed for Renilla Luciferase activity using the EnduRen as substrate (Promega cat #E6485). The EnduRen substrate was diluted in DMEM and then added to the plates to a final concentration of 7.5 μM. The plates were incubated for 2 hrs at 37° C. and then read immediately for 30 seconds with Viewlux Imager (PerkinElmer) using a luminescence program. To assess cytotoxicity of compounds, CC50 values were generated by multiplexing the EnduRen-containing plates with Cell Titer-Blue (Promega, cat # G8082). Cell-Titer Blue (3 μL) was added to each well and incubated for 8 hrs at 37° C. The fluorescence signal from each well was read, with an excitation wavelength at 525/10 nm and an emission wavelength of 598/10 nm, using the Viewlux Imager.
(§5) The EC50 values for compounds were calculated by using a four-parameter logistic equation: y=A+((B−A)/(1+((C/x)^D))), where A and B denotes minimal and maximal % inhibition, respectively, C is the EC50, D is the hill slope and x represents compound concentration.

[2] = system: HCV genotype 1b (Con1) replicon in HUH-7 cells; test: HCV replicon luciferase reporter assay, genotype 1b; format: cell-based; settings: Hepatitis C virus, Huh-7, 72 h, 3 days incubation, read-out: LE_1b (EC50, range)
Source text: as §1
as §2, with “time. […]” for “time.”
as §3, §4, §5

[3] = HCV genotype 1a replicon luciferase assay, range class
[4] = HCV genotype 1b replicon luciferase assay, range class
[5] = GETYPE1A, HCV genotype 1a replicon luciferase
[6] = GETYPE1B, HCV genotype 1b replicon luciferase
[7] = HCV genotype 1a replicon luciferase
[8] = HCV genotype 1b replicon luciferase

In the case of `COc1ccc2c(O[C@@H]3C[C@H]4C(=O)N[C@]5(C(=O)NS(=O)(=O)C6(C)CC6)C[C@H]5/C=C\CC[C@@H](C)C[C@@H](C)[C@H](NC(=O)O[C@@H]5C[C@@H]6C[C@@H]6C5)C(=O)N4C3)nc(N(C)C)cc2c1` [Compound 3111, (1R,3r,5S)-bicyclo[3.1.0]hexan-3-yl((2R,6S,7R,9R,13aS,14aR,16aS,Z)-2-((3-(dimethylamino)-6-methoxyisoquinolin-1-yl)oxy)-7,9-dimethyl-14a-(((1-methylcyclopropyl)sulfonyl)carbamoyl)-5,16-dioxo-1,2,3,5,6,7,8,9,10,11,13a,14,14a,15,16,16a-hexadecahydrocyclopropa[e]pyrrolo[1,2-a][1,4]diazacyclopentadecin-6-yl)carbamate], the EC50 [1, 3] is reported as < 5.46 nM and the EC50 [2, 4] is reported as 4.82 to 103 nM.

`CCOc1ccc2nc(Cl)c(O[C@@H]3C[C@H]4C(=O)N[C@]5(C(=O)NS(=O)(=O)C6(CF)CC6)C[C@H]5/C=C\CC[C@@H](C)C[C@@H](C)[C@H](NC(=O)OC(C)(C)C(F)(F)F)C(=O)N4C3)c(Cl)c2c1` [Compound 4292] gave an EC50 [1, 5] of 5.01 to 35 nM and an EC50 [2, 6] of 5.01 to 35 nM.

Work on `CC[C@@H]1C[C@H](C)CC/C=C\[C@@H]2C[C@@]2(C(=O)NS(=O)(=O)C2CC2)NC(=O)[C@@H]2C[C@@H](Oc3cc(OC)nc4cc(OC)c(F)cc34)CN2C(=O)[C@H]1NC(=O)OC(C)(C)C(C)(F)F` [Compound 1202] yielded an EC50 [1, 5] of 1.01 to 5 nM and an EC50 [2, 6] of 0.51 to 1 nM.

`[2H]C([2H])([2H])C(OC(=O)N[C@@H]1C(=O)N2C[C@H](Oc3ncc(OC)c4ccc(F)cc34)C[C@H]2C(=O)N[C@]2(C(=O)NS(=O)(=O)C3CC3)C[C@H]2/C=C\CC[C@@H](C)C[C@H]1CC)(C([2H])([2H])[2H])C(F)(F)F` [Compound 5467] was tested, and the EC50 [1, 7] was 1.01 to 5 nM and the EC50 [2, 8] was 0.1 to 0.5 nM.

For `COc1nnc(O[C@@H]2C[C@H]3C(=O)N[C@]4(C(=O)NS(=O)(=O)C5CC5)C[C@H]4/C=C\CC[C@@H](C)C[C@@H](C)[C@H](NC(=O)OC(C)(C)C(F)(F)F)C(=O)N3C2)c2ccccc12` [Compound 5006, 1,1,1-trifluoro-2-methylpropan-2-yl((2R,6S,7R,9R,13aS,14aR,16aS,Z)-14a-((cyclopropylsulfonyl)carbamoyl)-2-((4-methoxyphthalazin-1-yl)oxy)-7,9-dimethyl-5,16-dioxo-1,2,3,5,6,7,8,9,10,11,13a,14,14a,15,16,16a-hexadecahydrocyclopropa[e]pyrrolo[1,2-a][1,4]diazacyclopentadecin-6-yl)carbamate], the EC50 [1, 7] was < 5.46 nM and the EC50 [2, 8] was < 5.46 nM.

For `COc1ccc2c(O[C@@H]3C[C@H]4C(=O)N[C@]5(C(=O)NS(=O)(=O)C6CC6)C[C@H]5/C=C\CC[C@@H](C)C[C@@H](C)[C@H](NC(=O)OC(C)(C)C)C(=O)N4C3)nc(-c3ccc(N4CCOCC4)cc3)cc2c1` [Compound 5193, tert-butyl ((2R,6S,7R,9R,13aS,14aR,16aS,Z)-14a-((cyclopropylsulfonyl)carbamoyl)-2-((6-methoxy-3-(4-morpholinophenyl)isoquinolin-1-yl)oxy)-7,9-dimethyl-5,16-dioxo-1,2,3,5,6,7,8,9,10,11,13a,14,14a,15,16,16a-hexadecahydrocyclopropa[e]pyrrolo[1,2-a][1,4]diazacyclopentadecin-6-yl)carbamate], the EC50 [1, 7] was < 5.46 nM and the EC50 [2, 8] was < 5.46 nM.

In the case of `C[C@@H]1CC/C=C\[C@@H]2C[C@@]2(C(=O)NS(=O)(=O)C2CC2)NC(=O)[C@@H]2C[C@@H](Oc3ncc(OCC(F)F)c4ccccc34)CN2C(=O)[C@@H](NC(=O)OC(C)(C)C)[C@H](C)C1` [Compound 1028, tert-butyl ((2R,6S,7R,9R,13aS,14aR,16aS,Z)-14a-((cyclopropylsulfonyl)carbamoyl)-2-((4-(2,2-difluoroethoxyl)isoquinolin-1-yl)oxy)-7,9-dimethyl-5,16-dioxo-1,2,3,5,6,7,8,9,10,11,13a,14,14a,15,16,16a-hexadecahydrocyclopropa[e]pyrrolo[1,2-a][1,4]diazacyclopentadecin-6-yl)carbamate], the EC50 [1, 3] is reported as < 5.46 nM and the EC50 [2, 4] is reported as < 5.46 nM.
